Data as given in ChEMBL document CHEMBL1201862, “PubChem BioAssay data set” (2004).
Calls of active or inactive are those of the source.

What was measured:
[1] = biological target: T1, Bcl-2-like protein 10 (Homo sapiens, UniProt Q9HD36); assay: Bcl-B/TR3 peptide binding disruption – biochemical, fluorescence polarization, FITC-TR3 peptide, selectivity assay for Bfl-1 inhibitor project, primary screen (AID 748);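 further: fluorescence polarization from a fluorescein-labelled TR3 peptide binding purified Bcl-B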
T1 sequence (Q9HD36 whole entry): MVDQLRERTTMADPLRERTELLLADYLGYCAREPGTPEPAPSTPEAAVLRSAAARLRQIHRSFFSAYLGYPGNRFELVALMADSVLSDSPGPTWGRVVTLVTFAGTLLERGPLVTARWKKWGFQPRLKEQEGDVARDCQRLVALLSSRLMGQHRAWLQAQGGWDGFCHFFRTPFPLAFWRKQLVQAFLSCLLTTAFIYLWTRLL

[2] = biological target: Protein Tat (Human immunodeficiency virus type 1 group M subtype B (isolate HXB2)(HIV-1), UniProt P04608); assay type: functional;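 further: tat binding to TAR RNA read out by fluorescence polarization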
Protein Tat, sequence (P04608 whole entry): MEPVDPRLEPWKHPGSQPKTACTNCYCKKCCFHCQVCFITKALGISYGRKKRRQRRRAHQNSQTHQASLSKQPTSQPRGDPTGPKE

[3] = biological target: Glutathione-S-transferase (Schistosoma japonicum, UniProt Q26513); assay: GST-antibody interaction or FRET quenching – biochemical, TR-FRET, artefact control for Vif-APOBEC3G degradation inhibitor project, dose response (AID 1117362); assay type: functional
Glutathione-S-transferase, sequence (Q26513 whole entry): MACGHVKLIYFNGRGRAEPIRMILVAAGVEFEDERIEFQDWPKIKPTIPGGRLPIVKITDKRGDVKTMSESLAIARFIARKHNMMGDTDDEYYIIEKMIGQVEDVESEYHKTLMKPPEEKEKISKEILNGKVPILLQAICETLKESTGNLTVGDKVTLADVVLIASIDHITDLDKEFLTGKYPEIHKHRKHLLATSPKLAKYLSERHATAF

[4] = biological target: Paired box protein Pax-8 (Homo sapiens, UniProt Q06710); assay: PAX8 transcriptional activity inhibition in RMG-I – RMG-I cells, luciferase, cherry-pick, dose response (AID 687027); assay type: functional, cell-based;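 further: luciferase reporter driven by Pax8 target thyroperoxidase promoter measured by SteadyGlo luminescence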
Paired box protein Pax-8, sequence (Q06710 whole entry): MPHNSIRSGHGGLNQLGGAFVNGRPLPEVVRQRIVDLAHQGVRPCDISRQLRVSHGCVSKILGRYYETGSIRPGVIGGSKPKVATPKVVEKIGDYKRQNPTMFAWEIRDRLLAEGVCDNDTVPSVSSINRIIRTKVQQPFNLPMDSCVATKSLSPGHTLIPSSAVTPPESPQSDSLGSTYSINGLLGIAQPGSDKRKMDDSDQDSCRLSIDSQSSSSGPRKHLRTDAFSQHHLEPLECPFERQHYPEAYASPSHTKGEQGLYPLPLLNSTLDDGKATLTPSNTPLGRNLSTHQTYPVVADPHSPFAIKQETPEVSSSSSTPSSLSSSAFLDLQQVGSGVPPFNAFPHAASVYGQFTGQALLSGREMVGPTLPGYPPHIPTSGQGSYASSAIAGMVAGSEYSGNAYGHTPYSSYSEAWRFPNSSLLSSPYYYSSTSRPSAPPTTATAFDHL

[5] = inhibitors acting on PAX2 in cells – cell-based, plate reader, dry powder samples, selectivity assay for PAX8 inhibitor project, dose response (AID 743048); assay type: functional;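 further: HEK293 cells carrying a WT1 promoter luciferase reporter driven by expressed Pax2; potency is for inhibition of Pax2 driven reporter signal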
[6] = COV362 cell viability loss – plate reader, dry powder, SA12, cytotoxicity control for PAX8 inhibitor project, dose response (AID 743144); assay type: functional, cell-based
[7] = toxicity toward immortalized ovarian surface epithelium – cell-based, plate reader, dry powder samples, cytotoxicity control for PAX8 inhibitor project, dose response (AID 743045); assay type: functional
[8] = CMV-driven luciferase expression suppression in HEK293 – cell-based, luminescence, dry powder, counter-screen for Pax8 inhibitor project, dose response (AID 743020); assay type: functional
[9] = OVCAR-3 cell viability loss – plate reader, dry powder samples, PAX8 inhibitor project, dose response (AID 743044); assay type: functional, cell-based
[10] = PAX5 cellular inhibition readout – cell-based, plate reader, dry powder samples, selectivity assay for PAX8 inhibitor project, dose response (AID 743047); assay type: functional;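 further: HEK293 cells carrying a Pax5 driven CD19 promoter luciferase reporter; potency of inhibitors that lower reporter luminescence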
[11] = A549 cell cytotoxicity, dose response, cytotoxicity control, plate reader, cherry-pick, antagonist series (AID 743412); assay type: functional, cell-based
[12] = toxicity toward HepG2 liver cells – cell-based, plate reader, cherry-pick, antagonist series, cytotoxicity control, dose response (AID 743416); assay type: functional
[13] = IGROV1 cell killing – plate reader, dry powder samples, PAX8 inhibitor project, dose response (AID 743043); assay type: functional, cell-based; details: IGROV-1
[14] = blockers of bursicon-stimulated LGR2 cAMP reporter – cell-based, HEK293, CRE-luciferase reporter, cherry pick, set 2, dose response (AID 743343); assay type: functional;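 further: transfected cells were stimulated with diluted bursicon conditioned medium after compound addition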
[15] = COV434 cell viability loss – plate reader, dry powder, SA7, cytotoxicity control for PAX8 inhibitor project, dose response (AID 743145); assay type: functional, cell-based
[16] = OV-90 cell viability loss – plate reader, dry powder, SA8, PAX8 inhibitor project, dose response (AID 743149); assay type: functional, cell-based
[17] = blockade of melanocortin 4 receptor signaling – cell-based, plate reader, cherry pick, counter-screen for LGR2 antagonist project, dose response (AID 743444); assay type: functional;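 further: transfected HEK 293 cells stimulated with alpha-MSH peptide; potency of inhibitors of the alpha-MSH evoked signal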
[18] = OVCAR8 cell viability loss – plate reader, dry powder samples, PAX8 project, dose response (AID 743197); assay type: functional, cell-based; details: OVCAR-8
[19] = PAX8-dependent cell viability loss – plate reader, dry powder, dose response (AID 743049); assay type: functional, cell-based
[20] = viability loss in HEK293 cells – cell-based, plate reader, cherry-picked samples, cytotoxicity control, dose response (AID 743446); assay type: functional
[21] = viability loss in A549 lung cancer cells – cell-based, cherry-picks, […], cytotoxicity control, dose response (AID 1053119); assay type: functional
[22] = P. falciparum Dd2 growth inhibitors, dose response, SYBR Green, cherry-picked samples (AID 1159567); assay type: functional, cell-based
[23] = inhibition of fibronectin matrix deposition – AH1F cells, Alexa488-fibronectin fluorescence, cherry-pick, set 2, dose response (AID 1117283); assay type: functional, cell-based
[24] = toxicity to human hepatoma HepG2 cells – cell-based, cherry-picked samples, cytotoxicity control, dose response (AID 1159577); assay type: functional
[25] = TB: CFU replicating Measured in Microorganism System Using Imaging - 7108-05_Inhibitor_Dose_DryPowder_Activity_Set2.; assay type: functional
[26] = Single fluorophore orthopox expression reporter, late gene expression Measured in Cell-Based and Microorganism Combination System Using Plate Reader - 2142-08_Inhibitor_Dose_DryPowder_Activity.; assay type: functional
[27] = lung carcinoma cell viability loss – CellTiter-Glo luminescence, dry powder, set 17, dose response (AID 1117284); assay type: functional, cell-based; details: A549
[28] = inhibitors of orthopox intermediate gene expression, dose response, cell-based, single fluorophore reporter, dry powder (AID 1117271); assay type: functional
[29] = Dd2 parasite growth inhibition in erythrocytes – SYBR Green, dry powder samples, set 9, dose response (AID 1159568); assay type: functional, cell-based
[30] = Late stage results for the probe development effort to identify inhibitors of Plasmodium falciparum gametocytes: Luminescence-based cell-based high throughput dose response assay to identify inhibitors of viability of late stage Plasmodium falciparum gametocytes.; assay type: functional
[31] = loss of HEK293T viability via ATP – cell-based, plate reader, dry powder, set 10, cytotoxicity control, dose response (AID 743315); assay type: functional; details: HEK293
[32] = antifungal growth inhibition under osmotic support – sorbitol, alamar blue, dry powder, set 3, mechanism study for C. neoformans lysis project, dose response (AID 743304); assay type: functional, organism-based
[33] = antimalarial activity against Dd2 parasites – SYBR Green fluorescence, erythrocytes, dry powder, set 2, dose response (AID 1159574); assay type: functional, cell-based
[34] = inhibitors of TRPM1-promoter reporter in SK-MEL-5 – cell-based, luciferase, dry powder, set 9, MITF inhibitor project, dose response (AID 651588); assay type: functional
[35] = MITF Orthogonal Assay: MALME3 CTG Assay Measured in Cell-Based System Using Plate Reader - 2084-04_Inhibitor_Dose_DryPowder_Activity_Set6.; assay type: functional; details: MALME-3
[36] = growth inhibition of SK-MEL-5 melanoma cells – cell-based, CellTiter-Glo luminescence, dry powder, set 8, orthogonal assay for MITF inhibitor project, dose response (AID 651586); assay type: functional
[37] = growth inhibition of MALME3 cells – cell-based, CellTiter-Glo luminescence, dry powder, set 5, orthogonal assay for MITF inhibitor project, dose response (AID 651584); assay type: functional; details: MALME-3
[38] = MITF Orthogonal Assay: SK-MEL-5 CTG Assay Measured in Cell-Based System Using Plate Reader - 2084-02_Inhibitor_Dose_DryPowder_Activity_Set7.; assay type: functional
[39] = MITF: Counter assay: A375 proliferation Measured in Cell-Based System Using Plate Reader - 2084-03_Inhibitor_Dose_DryPowder_Activity_Set8.; assay type: functional; details: A-375
[40] = cytotoxicity in MITF-independent A375 cells – cell-based, CellTiter-Glo luminescence, dry powder, set 9, counter-screen for MITF modulator project, dose response (AID 651591); assay type: functional; details: A-375
[41] = inhibitors of TRPM1-promoter reporter in SK-MEL-5 – cell-based, luciferase, dry powder, set 8, MITF inhibitor project, dose response (AID 624430); assay type: functional
[42] = melanocyte viability loss, MITF-dependent cells, cell-based, plate reader, dry powder, cytotoxicity control, dose response (AID 651920); assay type: functional
[43] = CellTiter-Glo luminescence survival assay, SW480 colon tumor line, concentration-response curve, half-maximal inhibitory concentration (AID 1117338); assay type: functional
[44] = RKO cell viability reduction, dose response, CellTiter-Glo luminescence (AID 1117322); assay type: functional
[45] = cytotoxicity toward HCT116 cells – cell-based, CellTiter-Glo luminescence, IC50, dose response (AID 1117332); assay type: functional; details: HCT-116
[46] = SNU-C1 cell viability reduction, dose response, CellTiter-Glo luminescence (AID 1117323); assay type: functional, cell-based
[47] = cytotoxicity toward HT-29 cells – cell-based, CellTiter-Glo luminescence, IC50, dose response (AID 1117330); assay type: functional
[48] = Reduced DLD-1 viability, concentration-response, CellTiter-Glo luminescence (AID 1117352); assay type: functional

O=C1c2ccccc2CC1Sc1nnc(-c2ccccn2)o1 (stereo not drawn)
IC50 [1]: > 100 µM (inactive) | IC50 [2]: > 100 µM (active)

O=C(O)c1ccc(S(=O)(=O)c2ccc([N+](=O)[O-])cc2[N+](=O)[O-])cc1
IC50 [3]: > 100 µM (active)

N#C[C@@H]1[C@H](c2ccc(C#Cc3ccc(F)cc3)cc2)[C@@H](CO)N1C(=O)Nc1ccc(F)cc1
AC50 [4]: 4.38 µM (active) | AC50 [5]: 12.9 µM (active) | AC50 [6]: 44.7 µM (active) | AC50 [7]: 24 µM (active) | AC50 [8]: 5.19 µM (active) | AC50 [9]: 30.9 µM (active) | AC50 [10]: 15.8 µM (active) | AC50 [11]: 14.3 µM (active) | AC50 [12]: 16.8 µM (active) | AC50 [13]: 23.1 µM (active) | AC50 [14]: 34.4 µM (active) | AC50 [15]: > 70 µM (inactive) | AC50 [16]: > 70 µM (inactive) | AC50 [17]: 35.9 µM (active) | AC50 [18]: 22.2 µM (active) | AC50 [19]: 33.8 µM (active) | AC50 [20]: 27.9 µM (active)

C[C@@H]1CN([C@@H](C)CO)C(=O)c2cccc(NC(=O)Nc3ccc(C(F)(F)F)cc3)c2O[C@H]1CN(C)C(=O)Nc1cccc2ccccc12
AC50 [21]: > 52 µM (inactive) | AC50 [22]: 7.88 µM (active) | AC50 [23]: > 70 µM (inactive) | AC50 [24]: > 39 µM (inactive)

Cn1c(NC(=O)c2ccccn2)nc2ccccc21
AbsAC90 [25]: 274.28 µM

C[C@@H](O)C#Cc1ccc2c(c1)O[C@@H](CN(C)Cc1ccc(-c3cccc(Cl)c3)cc1)[C@@H](C)CN([C@@H](C)CO)S2(=O)=O
AC50 [26]: 2.54 µM (active) | AC50 [27]: 51.5 µM (active) | AC50 [28]: 3.58 µM (active)

CCCNC(=O)N1[C@H](C#N)[C@@H](c2ccccc2-c2cccc(C)c2)[C@@H]1CO
AC50 [29]: 10.2 µM (active)

O=C(Nc1nncs1)c1cc(-c2ccccc2)nn1-c1ccccc1
IC50 [30]: > 37.2 µM (inactive)

CSc1nc2ccccc2n1CCOc1cc(C)ccc1C(C)C
AC50 [31]: > 52 µM (inactive) | AC50 [32]: 41.6 µM (active)

COc1ccc(NC(=O)N2CCCCN3[C@H](CO)[C@@H](c4ccc(C#Cc5ccccc5)cc4)[C@H]3C2)cc1
AC50 [33]: 4.04 µM (active)

COc1ccc(NC2=C(N3CCCCC3)C(=O)c3ccccc3C2=O)cc1
AC50 [34]: 12 µM (active) | AC50 [35]: 11.2 µM (active) | AC50 [36]: 26.8 µM (active) | AC50 [37]: 11.2 µM (active) | AC50 [38]: 3.73 µM (active) | AC50 [39]: > 70 µM (inactive) | AC50 [40]: 42.4 µM (active) | AC50 [41]: 2.48 µM (active) | AC50 [42]: 40.9 µM (active)

[N-]=[N+]=CC(=O)OC[C@H](N)C(=O)O [AZASERINE]
IC50 [43]: > 20 µM (inactive) | IC50 [44]: > 20 µM (inactive) | IC50 [45]: > 20 µM (inactive) | IC50 [46]: > 20 µM (inactive) | IC50 [47]: > 20 µM (inactive) | IC50 [48]: > 20 µM (inactive)
